IC50 data for 19 molecules are collected here from ChEMBL document CHEMBL4616718, “Discovery of Potent Small-Molecule Inhibitors of MLL Methyltransferase” (ACS Med Chem Lett, 2020).

Molecules are shown by their SMILES.

For this test, the target named is MLL1-ASH2L/RbBP5/WDR5/DPY30. Briefly: Inhibition of recombinant human MLL1 complex (MLL1/Ash2L/RbBP5/WDR5/DPY-30) expressed in Escherichia coli Rosetta 2 (DE3) cells using H3 (1 to 21) peptide as substrate incubated for 1 hr in presence of 3[H] SAM by […] assay. (In general: In Alpha technology, singlet oxygen from a donor bead excites a nearby acceptor bead.)
Regarding `Nc1ncnc2c1ncn2[C@@H]1O[C@H](CN(CC[C@H](N)C(=O)O)CC2CN(CCCc3ccccc3)C2)[C@@H](O)[C@H]1O`, the IC50 – broadly, the midpoint of a concentration-inhibition curve – amounted to 29.6 nM.

With `Nc1ncnc2c1ncn2[C@@H]1O[C@H](CN(CC[C@H](N)C(=O)O)CC2CN(Cc3ccc(Cl)cc3)C2)[C@@H](O)[C@H]1O`, the concentration for half-maximal inhibition (IC50) was determined as 55.6 nM.

For `NCCN(CC[C@H](N)C(=O)O)C[C@H]1O[C@@H](n2cnc3c(N)ncnc32)[C@H](O)[C@@H]1O`, the IC50 was determined as 592 nM.

For `Nc1ncnc2c1ncn2[C@@H]1O[C@H](CN(CC[C@H](N)C(=O)O)C2CN(CCCC3CCCC3)C2)[C@@H](O)[C@H]1O`, the IC50 turned out to be 234 nM.

As for `Nc1ncnc2c1ncn2[C@@H]1O[C@H](CN(CC[C@H](N)C(=O)O)CC2CN(Cc3ccccc3Cl)C2)[C@@H](O)[C@H]1O`, the IC50 came out at 150 nM.

With `Nc1ncnc2c1ncn2[C@@H]1O[C@H](CN(CC[C@H](N)C(=O)O)CC2CN(Cc3coc4ccccc34)C2)[C@@H](O)[C@H]1O`, the IC50 worked out at 119 nM.

Consider `Nc1ncnc2c1ncn2[C@@H]1O[C@H](CN(CC[C@H](N)C(=O)O)CC2CN(Cc3cccc(Cl)c3)C2)[C@@H](O)[C@H]1O`, for which the IC50 was determined as 99.5 nM.

With `Nc1ncnc2c1ncn2[C@@H]1O[C@H](CN(CC[C@H](N)C(=O)O)CC2CN(CCC(c3ccccc3)c3ccccc3)C2)[C@@H](O)[C@H]1O`, the IC50 worked out at 138 nM.

Regarding `Nc1ncnc2c1ncn2[C@@H]1O[C@H](CN(CC[C@H](N)C(=O)O)C2CC(NCCCC3CCCC3)C2)[C@@H](O)[C@H]1O` (some centres undefined), the IC50 was found to be 127 nM.

`Nc1ncnc2c1ncn2[C@@H]1O[C@H](CN(CC[C@H](N)C(=O)O)CC2CN(Cc3cccs3)C2)[C@@H](O)[C@H]1O`: the IC50 was 66.5 nM.

Regarding `Nc1ncnc2c1ncn2[C@@H]1O[C@H](CN(CC[C@H](N)C(=O)O)C2CC(CNCCCc3ccccc3)C2)[C@@H](O)[C@H]1O` (some centres undefined), the IC50 was 451 nM.

`CCCCN1CC(CN(CC[C@H](N)C(=O)O)C[C@H]2O[C@@H](n3cnc4c(N)ncnc43)[C@H](O)[C@@H]2O)C1`: the IC50 came to 72.4 nM.

`Nc1ncnc2c1ncn2[C@@H]1O[C@H](CN(CC[C@H](N)C(=O)O)CC2CN(CCCC3CCCC3)C2)[C@@H](O)[C@H]1O`: the IC50 was 25.5 nM.

With `Nc1ncnc2c1ncn2[C@@H]1O[C@H](CN(CC[C@H](N)C(=O)O)CC2CN(Cc3ccoc3)C2)[C@@H](O)[C@H]1O`, the IC50 worked out at 21.8 nM.

As for `Nc1ncnc2c1ncn2[C@@H]1O[C@H](CN(CC[C@H](N)C(=O)O)Cc2cn(CCc3ccccc3)nn2)[C@@H](O)[C@H]1O`, the IC50 was found to be 132 nM.

Consider `Nc1ncnc2c1ncn2[C@@H]1O[C@H](CN(CC[C@H](N)C(=O)O)CC2CN(Cc3ccsc3)C2)[C@@H](O)[C@H]1O`, for which the IC50 was determined as 15.2 nM.

Regarding `Nc1ncnc2c1ncn2[C@@H]1O[C@H](CN(CC[C@H](N)C(=O)O)CC2CN(Cc3ccccc3)C2)[C@@H](O)[C@H]1O`, the IC50 is 46.8 nM.

As to `Nc1ncnc2c1ncn2[C@@H]1O[C@H](CN(CCCNCCCc2ccccc2)CC[C@H](N)C(=O)O)[C@@H](O)[C@H]1O`, the IC50 was found to be 201 nM.

As for `Nc1ncnc2c1ncn2[C@@H]1O[C@H](CSCC[C@H](N)C(=O)O)[C@@H](O)[C@H]1O` [S-ADENOSYLHOMOCYSTEINE], the IC50 amounted to 724 nM.
